For 15 molecules, TGI and GI50 results are on record in PubChem BioAssay (NCI).

Where “and” joins values, the source holds several entries; their conditions need not be identical. Equal entries are not always repeated.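 Five concentrations, 48 hours, 96-well plates. GI50: concentration for 50% inhibition of growth. TGI: concentration producing complete growth inhibition.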

Test systems include K-562 leukemia; OVCAR-8 ovarian; HCT-116 colon; A549 NSCLC; SK-MEL-2 melanoma; A498 renal; CCRF-CEM leukemia; HCT-15 colon; PC-3 prostate.
Holding throughout (test): NCI anticancer screen, dose series, 48 h

Consider `CC(C)(C)c1ccc(Oc2ccc(C#N)c(C#N)c2)c(C(C)(C)C)c1`, for which the TGI with K-562 leukemia is more than 64.9 µM; in the test on OVCAR-8 ovarian, more than 100 µM; with HCT-116 colon, more than 60.1 µM; in the test on A549 NSCLC it was more than 100 µM; with SK-MEL-2 melanoma, 97.8 µM; in the test on A498 renal it was more than 100 µM. The TGI was more than 66.2 µM in the test on CCRF-CEM leukemia and 31.3 µM in the test on HCT-15 colon.
With `Cc1ccc(C)c(NC(=O)CC2C(=O)Nc3ccccc3S2(=O)=O)c1` (stereo unspecified), the TGI with K-562 leukemia, with OVCAR-8 ovarian, in the test on HCT-116 colon, with A549 NSCLC, in the test with SK-MEL-2 melanoma and in the test on A498 renal was more than 100 µM in each case. Also, the TGI with CCRF-CEM leukemia and with HCT-15 colon was more than 100 µM each time.
Turning to `Cc1cc(N(CCC#N)CCC#N)ccc1N=Nc1ccccc1[N+](=O)[O-]`, the TGI with K-562 leukemia, with OVCAR-8 ovarian, in the test on A549 NSCLC, in the test on SK-MEL-2 melanoma, in the test on A498 renal and with CCRF-CEM leukemia was more than 100 µM throughout. For the same molecule, in the test on HCT-15 colon, the TGI is more than 100 µM.
As to `Brc1nc2c3ccccc3ncn2c1Br`, the TGI in the test with K-562 leukemia is more than 100 µM; in the test with OVCAR-8 ovarian, more than 100 µM; with HCT-116 colon, more than 100 µM; in the test with A549 NSCLC it was more than 100 µM; with SK-MEL-2 melanoma, 82.6 µM; with A498 renal, more than 100 µM. The TGI in the test on CCRF-CEM leukemia and in the test on HCT-15 colon was more than 100 µM each time.
For the molecule `COC(=O)C/C(C)=C/[C@@H](O)[C@H]1O[C@@H]2CC/C(Cl)=C/C/C=C(/C)[C@H](OC(C)=O)CC(=O)O[C@@H]1C2`, the GI50 in the test on K-562 leukemia is 4.34 µM; in the test with OVCAR-8 ovarian it was 4.73 µM; in the test with HCT-116 colon, 3.22 µM; in the test on A549 NSCLC, 10 µM; with SK-MEL-2 melanoma, 0.581 µM; in the test with PC-3 prostate, 1.08 µM. The GI50 in the test with HCT-15 colon is 8.01 µM. Besides, the TGI is more than 25 µM in the test with K-562 leukemia; more than 25 µM with OVCAR-8 ovarian; 7.85 µM with HCT-116 colon; more than 25 µM in the test with A549 NSCLC; 9.62 µM in the test on SK-MEL-2 melanoma; 4.13 µM with PC-3 prostate. The same molecule gave a TGI with HCT-15 colon of more than 25 µM.
As to `Cc1c2cc[n+](C)cc2c(C)c2c1[nH]c1ccc(OC(C)C)cc12`, the GI50 with K-562 leukemia was 1.02 µM and 2.55 µM; in the test on OVCAR-8 ovarian, 0.649 µM and 1.61 µM; with CCRF-CEM leukemia, 2.59 µM and 15.9 µM. Moreover, the TGI is more than 46.4 µM in the test with K-562 leukemia; 26 µM and 18.9 µM in the test on OVCAR-8 ovarian; > 35.8 µM and 20.4 µM in the test on HCT-116 colon; more than 100 µM in the test with A549 NSCLC; 3.94 µM and 8.68 µM in the test on SK-MEL-2 melanoma; more than 46.8 µM in the test with A498 renal. Besides, the TGI in the test with CCRF-CEM leukemia was 23.9 µM and > 64.7 µM; with HCT-15 colon it was more than 100 µM.
As for `COc1cccc(/C=C\c2cc(OC)c(OC)c(OC)c2)c1`, the TGI in the test with K-562 leukemia was 43.7 µM; with OVCAR-8 ovarian, more than 100 µM; with HCT-116 colon it was more than 100 µM; in the test on A549 NSCLC it was more than 100 µM; in the test with CCRF-CEM leukemia, 22.8 µM; with HCT-15 colon it was more than 100 µM.
On to `COC(=O)[C@H](C)[C@H]1CC[C@@](C)([C@H]2CC3C(C)(C)[C@H]4CCC(C)=C[C@H]4C[C@@]3(C)O2)OO1` (stereo partly specified), for which the TGI in the test on K-562 leukemia is 24.2 µM; in the test with OVCAR-8 ovarian, 26.2 µM; with HCT-116 colon, 22.3 µM; in the test on A549 NSCLC it was 23.2 µM; in the test with SK-MEL-2 melanoma, 31.4 µM; in the test on A498 renal it was 24.1 µM. Moreover, the TGI in the test with CCRF-CEM leukemia worked out at 16.3 µM; with HCT-15 colon, 24.2 µM.
Take `CC1=CCP(C(F)(F)F)P(C(F)(F)F)C1` (stereo unspecified): the TGI in the test with K-562 leukemia, in the test on OVCAR-8 ovarian, in the test on HCT-116 colon, in the test on A549 NSCLC, in the test with A498 renal and in the test with CCRF-CEM leukemia was more than 100 µM in each case. Also, the TGI with HCT-15 colon was more than 100 µM.
On to `Cc1ccc(C2=[N+]([O-])c3ccccc3C2=O)cc1`, for which the TGI with K-562 leukemia is 41 µM; with OVCAR-8 ovarian, 36 µM; in the test on HCT-116 colon it was more than 54.4 µM; with A549 NSCLC, more than 90.7 µM; in the test with SK-MEL-2 melanoma, 97.7 µM; in the test with A498 renal, more than 100 µM. The TGI amounted to 25.9 µM in the test with CCRF-CEM leukemia and 42 µM in the test with HCT-15 colon.
For `COC1CCC2C(=O)CCCC2O1` (stereo unspecified), the TGI in the test with K-562 leukemia, in the test with OVCAR-8 ovarian, in the test on HCT-116 colon, in the test with A549 NSCLC, in the test on SK-MEL-2 melanoma and in the test on A498 renal was more than 100 µM in each case. In addition, the TGI in the test with HCT-15 colon was more than 100 µM.
As for `CCCCCCC(O)C/C=C/CCCCCC/C(C(=O)OC)=C(/O)C(=O)OCC` (stereo unspecified), the TGI in the test on K-562 leukemia, in the test on OVCAR-8 ovarian, in the test on HCT-116 colon, with A549 NSCLC, with SK-MEL-2 melanoma and in the test on A498 renal was more than 100 µM each time. Further, the TGI with CCRF-CEM leukemia and in the test on HCT-15 colon was more than 100 µM throughout.
As for `O=C(Nc1ccccc1)O/N=C1/CCCC/C1=C\c1ccccc1`, the TGI in the test with K-562 leukemia came out at 29.1 µM; with OVCAR-8 ovarian, 42.8 µM; with HCT-116 colon it was 26.6 µM; with SK-MEL-2 melanoma, 29.2 µM; in the test with A498 renal it was 53.6 µM; in the test with CCRF-CEM leukemia it was 33.1 µM. For the same molecule, in the test with HCT-15 colon, the TGI is 23.4 µM.
Take `O=C(Nc1cccc(C2=NCCN2)c1)c1ccc(OCCCOc2ccc(C(=O)Nc3cccc(C4=NCCN4)c3)cc2)cc1`: the GI50 with K-562 leukemia was 1.25 µM; in the test on OVCAR-8 ovarian it was 4.03 µM; in the test on A498 renal, 2.3 µM; in the test on CCRF-CEM leukemia it was 4 µM; in the test on PC-3 prostate, 2.78 µM; in the test on HCT-15 colon it was 20.2 µM. Moreover, the TGI is more than 100 µM in the test with K-562 leukemia; more than 100 µM in the test with OVCAR-8 ovarian; 8.37 µM with A498 renal; more than 100 µM with CCRF-CEM leukemia; 8.21 µM in the test on PC-3 prostate; more than 100 µM with HCT-15 colon.
For the molecule `CN(OC(=O)CC(=O)c1ccccc1)C(=O)Cc1ccccc1`, the TGI in the test with OVCAR-8 ovarian, in the test with HCT-116 colon, with A549 NSCLC, with SK-MEL-2 melanoma, in the test on A498 renal and in the test with CCRF-CEM leukemia was more than 100 µM each time. In addition, the TGI in the test on HCT-15 colon is more than 100 µM.
